Measured values reported in PubChem BioAssay (NCI).
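96-well plates; 48 h exposure; 5 concentrations. Endpoints by linear interpolation between flanking doses. Not reached: highest tested concentration assigned. GI50 marks 50% less growth. TGI: concentration producing complete growth inhibition.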

Legend:
Experiment in all cases: growth of human tumour cells (NCI), 48 h
A498 renal = test system: A498 renal
A549 NSCLC = test system: A549 NSCLC
ACHN renal = test system: ACHN renal
BT-549 breast = test system: BT-549 breast
COLO 205 colon = test system: COLO 205 colon
EKVX NSCLC = test system: EKVX NSCLC
HCC-2998 colon = test system: HCC-2998 colon
HCT-15 colon = test system: HCT-15 colon
HOP-62 NSCLC = test system: HOP-62 NSCLC
HOP-92 NSCLC = test system: HOP-92 NSCLC
HS 578T breast = test system: HS 578T breast
HT29 colon = test system: HT29 colon
IGROV1 ovarian = test system: IGROV1 ovarian
K-562 leukemia = test system: K-562 leukemia
KM12 colon = test system: KM12 colon
LOX IMVI melanoma = test system: LOX IMVI melanoma
M14 melanoma = test system: M14 melanoma
MALME-3M melanoma = test system: MALME-3M melanoma
MCF7 breast = test system: MCF7 breast
MDA-MB-231 breast = test system: MDA-MB-231 breast
MDA-MB-435 = test system: MDA-MB-435
MOLT-4 leukemia = test system: MOLT-4 leukemia
NCI-H226 lung = test system: NCI-H226 lung
NCI-H23 lung = test system: NCI-H23 lung
NCI-H460 lung = test system: NCI-H460 lung
NCI-H522 lung = test system: NCI-H522 lung
OVCAR-3 ovarian = test system: OVCAR-3 ovarian
OVCAR-4 ovarian = test system: OVCAR-4 ovarian
OVCAR-5 ovarian = test system: OVCAR-5 ovarian
OVCAR-8 ovarian = test system: OVCAR-8 ovarian
PC-3 prostate = test system: PC-3 prostate
RPMI-8226 leukemia = test system: RPMI-8226 leukemia
RXF 393 renal = test system: RXF 393 renal
SF-268 CNS = test system: SF-268 CNS
SF-295 CNS = test system: SF-295 CNS
SF-539 CNS = test system: SF-539 CNS
SK-MEL-2 melanoma = test system: SK-MEL-2 melanoma
SK-MEL-28 melanoma = test system: SK-MEL-28 melanoma
SK-MEL-5 melanoma = test system: SK-MEL-5 melanoma
SK-OV-3 ovarian = test system: SK-OV-3 ovarian
SN12C renal = test system: SN12C renal
SNB-19 CNS = test system: SNB-19 CNS
SNB-75 CNS = test system: SNB-75 CNS
SR leukemia = test system: SR leukemia
SW-620 colon = test system: SW-620 colon
T-47D breast = test system: T-47D breast
TK-10 renal = test system: TK-10 renal
U251 CNS = test system: U251 CNS
UACC-257 melanoma = test system: UACC-257 melanoma
UACC-62 melanoma = test system: UACC-62 melanoma
UO-31 renal = test system: UO-31 renal
786-0 renal = test system: 786-0 renal
CAKI-1 renal = test system: CAKI-1 renal
DU-145 prostate = test system: DU-145 prostate
HCT-116 colon = test system: HCT-116 colon
HL-60(TB) leukemia = test system: HL-60(TB) leukemia
NCI/ADR-RES ovarian = test system: NCI/ADR-RES ovarian

With `COc1cc(CC2CCc3nc(N)nc(N)c3C2)cc(OC)c1OC` (stereo not drawn) the TGI (A498 renal) was greater than 87800 nM, the TGI (A549 NSCLC) was greater than 100000 nM and the TGI (ACHN renal) was greater than 45600 nM. The TGI (BT-549 breast) was greater than 100000 nM, the TGI (COLO 205 colon) was 21600 nM and the TGI (EKVX NSCLC) was greater than 100000 nM. It also gave a TGI (HCC-2998 colon) greater than 46900 nM, a TGI (HCT-15 colon) greater than 100000 nM and a TGI (HOP-62 NSCLC) of 69700 nM. It also gave a TGI (HOP-92 NSCLC) greater than 100000 nM, a TGI (HS 578T breast) greater than 100000 nM and a TGI (HT29 colon) greater than 100000 nM. The TGI (IGROV1 ovarian) was 98200 nM, the TGI (K-562 leukemia) was greater than 100000 nM and the TGI (KM12 colon) was greater than 100000 nM. For the same compound, the TGI (LOX IMVI melanoma) was greater than 43100 nM, the TGI (M14 melanoma) was 28700 nM and the TGI (MALME-3M melanoma) was 28400 nM. The TGI (MCF7 breast) was greater than 100000 nM, the TGI (MDA-MB-231 breast) was greater than 100000 nM and the TGI (MDA-MB-435) was greater than 100000 nM. For the same compound, the TGI (MOLT-4 leukemia) was greater than 100000 nM, the TGI (NCI-H226 lung) was greater than 66100 nM and the TGI (NCI-H23 lung) was greater than 72500 nM. For the same compound, the TGI (NCI-H460 lung) was greater than 91500 nM, the TGI (NCI-H522 lung) was 17000 nM and the TGI (OVCAR-3 ovarian) was greater than 100000 nM. For the same compound, the TGI (OVCAR-4 ovarian) was greater than 100000 nM, the TGI (OVCAR-5 ovarian) was greater than 100000 nM and the TGI (OVCAR-8 ovarian) was greater than 100000 nM. For the same compound, the TGI (PC-3 prostate) was greater than 100000 nM, the TGI (RPMI-8226 leukemia) was greater than 68400 nM and the TGI (RXF 393 renal) was 11900 nM. For the same compound, the TGI (SF-268 CNS) was 13400 nM, the TGI (SF-295 CNS) was greater than 51300 nM and the TGI (SF-539 CNS) was greater than 60400 nM. The TGI (SK-MEL-2 melanoma) was greater than 56600 nM, the TGI (SK-MEL-28 melanoma) was greater than 100000 nM and the TGI (SK-MEL-5 melanoma) was 16600 nM. The TGI (SK-OV-3 ovarian) was greater than 100000 nM, the TGI (SN12C renal) was greater than 100000 nM and the TGI (SNB-19 CNS) was greater than 100000 nM. It also gave a TGI (SNB-75 CNS) greater than 48800 nM, a TGI (SR leukemia) greater than 100000 nM and a TGI (SW-620 colon) greater than 100000 nM. The TGI (T-47D breast) was greater than 100000 nM, the TGI (TK-10 renal) was greater than 100000 nM and the TGI (U251 CNS) was greater than 100000 nM. It also gave a TGI (UACC-257 melanoma) greater than 63100 nM, a TGI (UACC-62 melanoma) greater than 100000 nM and a TGI (UO-31 renal) greater than 71500 nM.

Compound `O=C1C=C(Nc2ccccc2)c2ncccc2C1=O` has a GI50 (786-0 renal) of 1520 nM, a TGI (786-0 renal) of 3050 nM and a GI50 (A498 renal) of 1640 nM. The TGI (A498 renal) was 3000 nM, the GI50 (A549 NSCLC) was 476 nM and the TGI (A549 NSCLC) was 2300 nM. It also gave a GI50 (ACHN renal) of 349 nM, a TGI (ACHN renal) of 1220 nM and a GI50 (BT-549 breast) of 1280 nM. For the same compound, the TGI (BT-549 breast) was 2640 nM, the GI50 (CAKI-1 renal) was 1390 nM and the TGI (CAKI-1 renal) was 2700 nM. The GI50 (COLO 205 colon) was 1950 nM, the TGI (COLO 205 colon) was 3920 nM and the GI50 (DU-145 prostate) was 341 nM. For the same compound, the TGI (DU-145 prostate) was 1120 nM, the GI50 (EKVX NSCLC) was 1370 nM and the TGI (EKVX NSCLC) was 2810 nM. The GI50 (HCC-2998 colon) was 1550 nM, the TGI (HCC-2998 colon) was 3000 nM and the GI50 (HCT-116 colon) was 291 nM. It also gave a TGI (HCT-116 colon) of 883 nM, a GI50 (HCT-15 colon) of 321 nM and a TGI (HCT-15 colon) of 1280 nM. The GI50 (HL-60(TB) leukemia) was 842 nM, the TGI (HL-60(TB) leukemia) was 3840 nM and the GI50 (HOP-62 NSCLC) was 376 nM. The TGI (HOP-62 NSCLC) was 1490 nM, the GI50 (HOP-92 NSCLC) was 1490 nM and the TGI (HOP-92 NSCLC) was 2970 nM. The GI50 (HS 578T breast) was 2330 nM, the TGI (HS 578T breast) was 6580 nM and the GI50 (HT29 colon) was 2780 nM. The TGI (HT29 colon) was greater than 26700 nM, the GI50 (IGROV1 ovarian) was 904 nM and the TGI (IGROV1 ovarian) was 2580 nM. The GI50 (KM12 colon) was 669 nM, the TGI (KM12 colon) was 2110 nM and the GI50 (LOX IMVI melanoma) was 208 nM. For the same compound, the TGI (LOX IMVI melanoma) was 514 nM, the GI50 (M14 melanoma) was 352 nM and the TGI (M14 melanoma) was 1170 nM. It also gave a GI50 (MALME-3M melanoma) of 1060 nM, a TGI (MALME-3M melanoma) of 2370 nM and a GI50 (MCF7 breast) of 203 nM. For the same compound, the TGI (MCF7 breast) was 452 nM, the GI50 (MDA-MB-231 breast) was 485 nM and the TGI (MDA-MB-231 breast) was 3400 nM. It also gave a GI50 (MDA-MB-435) of 178 nM, a TGI (MDA-MB-435) of 323 nM and a GI50 (MOLT-4 leukemia) of 1020 nM. For the same compound, the TGI (MOLT-4 leukemia) was 3780 nM, the GI50 (NCI-H226 lung) was 1710 nM and the TGI (NCI-H226 lung) was 3610 nM. The GI50 (NCI-H23 lung) was 307 nM, the TGI (NCI-H23 lung) was 1310 nM and the GI50 (NCI-H460 lung) was 350 nM. It also gave a TGI (NCI-H460 lung) of 1110 nM, a GI50 (NCI-H522 lung) of 704 nM and a TGI (NCI-H522 lung) of 2440 nM. For the same compound, the GI50 (NCI/ADR-RES ovarian) was 330 nM, the TGI (NCI/ADR-RES ovarian) was 1880 nM and the GI50 (OVCAR-3 ovarian) was 280 nM. The TGI (OVCAR-3 ovarian) was 825 nM, the GI50 (OVCAR-4 ovarian) was 321 nM and the TGI (OVCAR-4 ovarian) was 1110 nM. The GI50 (OVCAR-5 ovarian) was 1740 nM, the TGI (OVCAR-5 ovarian) was 3400 nM and the GI50 (OVCAR-8 ovarian) was 373 nM. It also gave a TGI (OVCAR-8 ovarian) of 1400 nM, a GI50 (PC-3 prostate) of 439 nM and a TGI (PC-3 prostate) of 2290 nM. The GI50 (RPMI-8226 leukemia) was 305 nM, the TGI (RPMI-8226 leukemia) was 1300 nM and the GI50 (RXF 393 renal) was 1400 nM. The TGI (RXF 393 renal) was 2720 nM, the GI50 (SF-268 CNS) was 446 nM and the TGI (SF-268 CNS) was 1800 nM. It also gave a GI50 (SF-295 CNS) of 1310 nM, a TGI (SF-295 CNS) of 2600 nM and a GI50 (SF-539 CNS) of 356 nM. The TGI (SF-539 CNS) was 1210 nM, the GI50 (SK-MEL-2 melanoma) was 1910 nM and the TGI (SK-MEL-2 melanoma) was 3670 nM. It also gave a GI50 (SK-MEL-28 melanoma) of 1700 nM, a TGI (SK-MEL-28 melanoma) of 3240 nM and a GI50 (SK-MEL-5 melanoma) of 177 nM. For the same compound, the TGI (SK-MEL-5 melanoma) was 318 nM, the GI50 (SK-OV-3 ovarian) was 1750 nM and the TGI (SK-OV-3 ovarian) was 3160 nM. The GI50 (SN12C renal) was 290 nM, the TGI (SN12C renal) was 829 nM and the GI50 (SNB-19 CNS) was 411 nM. It also gave a TGI (SNB-19 CNS) of 1430 nM, a GI50 (SNB-75 CNS) of 1580 nM and a TGI (SNB-75 CNS) of 2940 nM. It also gave a GI50 (SR leukemia) of 691 nM, a TGI (SR leukemia) greater than 100000 nM and a GI50 (SW-620 colon) of 340 nM. It also gave a TGI (SW-620 colon) of 1280 nM, a GI50 (T-47D breast) of 1270 nM and a TGI (T-47D breast) of 3580 nM. For the same compound, the GI50 (TK-10 renal) was 1820 nM, the TGI (TK-10 renal) was 3280 nM and the GI50 (U251 CNS) was 348 nM. For the same compound, the TGI (U251 CNS) was 1200 nM, the GI50 (UACC-257 melanoma) was 1290 nM and the TGI (UACC-257 melanoma) was 2660 nM. It also gave a GI50 (UACC-62 melanoma) of 224 nM, a TGI (UACC-62 melanoma) of 521 nM and a GI50 (UO-31 renal) of 333 nM. The TGI (UO-31 renal) was 1320 nM.
